Assay results as given in patent US20250270218A1, “IMIDAZ0[1,2-A]PYRIMIDINE-5(1 H)-ONES AS WRN INHIBITORS” (Incyte Corporation, priority 2023, published 2025).

How the values were obtained:
[1] = target: T1, WRN (Homo sapiens, UniProt Q14191); experiment: WRN ATPase activity assay (ADP-Glo); type: biochemical; details: 1-hr pre-incubation with enzyme; 25 nM forked dsDNA, 100 μM ATP, 1 nM WRN; geometric mean of at least 2 replicates
T1 construct: A His-tagged construct of WRN (AA S2-S1235) was produced and used for the ATPase assay; made in house; host or cells: Sf9 insect cells (baculovirus, pFastBac1)
T1 sequence (Q14191 2-1235): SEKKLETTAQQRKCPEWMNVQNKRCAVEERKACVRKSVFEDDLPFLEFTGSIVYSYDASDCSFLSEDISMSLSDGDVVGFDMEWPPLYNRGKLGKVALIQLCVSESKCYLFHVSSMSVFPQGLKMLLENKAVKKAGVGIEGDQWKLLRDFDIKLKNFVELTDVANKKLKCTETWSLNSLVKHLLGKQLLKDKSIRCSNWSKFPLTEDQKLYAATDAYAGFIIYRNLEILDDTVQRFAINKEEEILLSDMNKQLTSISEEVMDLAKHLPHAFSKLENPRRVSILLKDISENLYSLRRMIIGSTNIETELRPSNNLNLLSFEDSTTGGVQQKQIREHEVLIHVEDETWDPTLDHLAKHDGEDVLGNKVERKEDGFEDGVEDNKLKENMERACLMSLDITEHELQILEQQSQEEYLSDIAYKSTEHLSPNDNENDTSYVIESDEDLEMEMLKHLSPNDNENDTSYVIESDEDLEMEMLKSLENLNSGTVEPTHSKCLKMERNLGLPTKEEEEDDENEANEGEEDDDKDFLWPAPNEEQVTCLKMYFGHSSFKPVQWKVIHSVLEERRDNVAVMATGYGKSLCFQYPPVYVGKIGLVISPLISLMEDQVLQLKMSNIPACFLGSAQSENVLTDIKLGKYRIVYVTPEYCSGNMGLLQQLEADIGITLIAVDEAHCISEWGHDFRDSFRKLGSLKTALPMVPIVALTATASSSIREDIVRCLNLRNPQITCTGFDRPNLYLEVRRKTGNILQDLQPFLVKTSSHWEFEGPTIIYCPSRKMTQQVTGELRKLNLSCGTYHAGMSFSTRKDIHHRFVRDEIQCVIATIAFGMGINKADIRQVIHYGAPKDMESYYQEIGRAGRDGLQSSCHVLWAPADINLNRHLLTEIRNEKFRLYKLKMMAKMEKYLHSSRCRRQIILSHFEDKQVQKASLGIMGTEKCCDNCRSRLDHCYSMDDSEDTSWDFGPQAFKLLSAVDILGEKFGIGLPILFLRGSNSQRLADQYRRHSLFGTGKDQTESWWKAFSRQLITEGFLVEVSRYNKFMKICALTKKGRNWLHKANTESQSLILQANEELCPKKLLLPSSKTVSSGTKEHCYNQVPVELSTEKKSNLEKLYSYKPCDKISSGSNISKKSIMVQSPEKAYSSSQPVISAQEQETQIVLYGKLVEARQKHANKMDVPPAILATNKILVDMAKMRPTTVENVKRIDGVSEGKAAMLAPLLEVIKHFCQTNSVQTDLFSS
Method: Compounds of the Examples were tested for WRN ATPase activity. WRN ATPase activity catalyzes ATP hydrolysis to produce ADP and phosphate. DNA encoding the target protein, 6×HIS-TEV-WRN-517-945, was produced, cloned, and transfected as detailed in Example D. The amount of ADP produced was measured using ADP-Glo™ Kinase Assay kit from Promega Corporation in a Greiner white regular volume 384 wells assay plate (Greiner #781075). Data was normalized to a standard curve generated using various ADP concentrations and the corresponding luminescent signal intensities at each concentration. The assay conditions were optimized for enzyme concentration (WRN), substrate concentrations (ATP & dsDNA), and the linearity of the ATPase reaction, in the following assay buffer: 50 mM Tris-HCl, pH-7.5, 2 mM MgCl2, 50 mM NaCl, 1 mM EGTA, 0.01% P-20, 0.05% BSA, and 2 mM DTT prepared with nuclease free water.
A serial dilution (1:3 scheme) of the compounds were prepared in neat DMSO, with 100 nL of the compounds dispensed in the 384 wells assay plate. A 1-hr pre-incubation of the compounds with enzyme was included. A His-tagged construct of WRN (AA S2-S1235) was produced and used for the ATPase assay. Maximum inhibition control wells were set up with the addition of only assay buffer, and no inhibition control wells were set up with neat DMSO without test compounds. The reaction was initiated by addition of 5 μL substrate mix (200 μM ultrapure ATP, and 50 nM dsDNA prepared in assay buffer) and incubated at 25° C. for 35 min. A forked dsDNA oligomer substrate was prepared by annealing equal amounts of oligo GPat-1 ([BHQ2][…]) and oligo GPat-2 ([…][TAM]) and was used as dsDNA substrate for WRN ATPase assay. A typical ATPase reaction consists of 25 nM forked dsDNA, 100 μM ATP, and 1 nM WRN prepared in assay buffer. The WRN ATPase reaction was stopped by the addition of 5 μL of ADP-Glo Reagent from ADP-Glo™ Kinase Assay kit and incubated for 40 min to deplete the unreacted ATP. Afterwards, 5 μL of Kinase Detection Reagent from the ADP-Glo™ Kinase Assay kit was added and incubated for 1 hr for the development of luminescence signal.
Luminesce signals were measured on BMG PHERAstar FSX using luminescence protocol. Data analysis was carried out using Genedata software following % of control normalization. Fitting parameters include dose response IC50, Hill slope (n), maximum inhibition (S∞), and minimum inhibition (S0). The reported IC50 values for compounds in this invention are the geometric means of at least 2 independent replicates.

[2] = target: T1, WRN; experiment: WRN Helicase activity assay (fluorescence DNA unwinding); type: biochemical; details: 1-hr pre-incubation with enzyme; 25 nM forked dsDNA, 100 μM ATP, 1 nM WRN; geometric mean of at least 2 replicates
Method: Compounds of the examples were tested for WRN helicase activity. DNA encoding the target protein, 6×HIS-TEV-WRN-517-945, was produced, cloned, and transfected as detailed in Example D. To determine the inhibitory properties of the compounds, a 384 wells plate-based Helicase assay was set up to measure the extent of DNA unwinding (Helicase) activity of WRN. The WRN Helicase assay was designed to measure increase in fluorescence signal using a fluorescence based, donor-quencher paired forked dsDNA oligomer substrate (custom synthesis from Sigma-Aldrich) prepared by annealing equal amounts of oligo GPat-1 ([BHQ2][…]) and oligo GPat-2 ([…][TAM]). Continuous measurement of fluorescent signal was used to optimize the buffer conditions, concentration of enzyme (WRN), concentration of substrates (ATP & dsDNA), and the linearity of the Helicase reaction. All solutions were prepared in the following assay buffer: 50 mM Tris-HCl, pH-7.5, 2 mM MgCl2, 50 mM NaCl, 1 mM EGTA, 0.01% P-20, 0.05% BSA, and 2 mM DTT prepared with nuclease free water.
A serial dilution (1:3 scheme) of the compounds was prepared in neat DMSO and 100 nL of the compounds was dispensed in the Greiner black low volume (Greiner #784076) 384 wells assay plate. A 1-hr pre-incubation of the compounds with enzyme was included. A His-tagged construct of WRN (AA S2-S1235) was produced and used for the ATPase assay. Maximum inhibition control wells were set up with the addition of only assay buffer, and no inhibition control wells were set up with neat DMSO without test compounds. The reaction was initiated by addition of 5 μL substrate mix (200 μM ultrapure ATP, and 50 nM dsDNA prepared in assay buffer) and incubated at 25° C. for 35 min. A typical Helicase reaction consists of 25 nM forked dsDNA, 100 μM ATP, and 1 nM WRN prepared in assay buffer. The WRN Helicase reaction was quenched by the addition of 5 μL ‘STOP’ solution containing 100 mM EDTA (final EDTA concentration 33.33 mM) prepared in assay buffer. The plates were read on BMG PHERAstar FSX using 540/590 module to measure an increase of fluorescence. Data analysis was carried out using the Genedata software following % of control normalization. Fitting parameters include dose response IC50, Hill slope (n), maximum inhibition (S∞), and minimum inhibition (S0). The reported IC50 values for compounds in this invention are the geometric means of at least 2 independent replicates.

| SMILES | IC50 [1] | IC50 [2] |
| --- | --- | --- |
| C=CC(=O)Nc1ccccc1-c1c(CC)n(CC(=O)Nc2ccc(C(F)(F)F)cc2)c2nc(C)c(-c3ccccc3)n2c1=O [Example 5, N-(2-(7-ethyl-2-methyl-5-oxo-8-(2-oxo-2-((4-(trifluoromethyl)phenyl)amino)ethyl)-3-phenyl-5,8-dihydroimidazo[1,2-a]pyrimidin-6-yl)phenyl)acrylamide] | 100 to 500 nM | 100 to 500 nM |
| C=CC(=O)Nc1ccccc1-c1c(C)nc2n(CC(=O)Nc3ccc(C(F)(F)F)cc3)c(CC)c(-c3ccc(C(=O)NC)nc3)c(=O)n12 [Example 10, 5-(3-(2-Acrylamidophenyl)-7-ethyl-2-methyl-5-oxo-8-(2-oxo-2-((4-(trifluoromethyl)phenyl)amino)ethyl)-5,8-dihydroimidazo[1,2-a]pyrimidin-6-yl)-N-methylpicolinamide] | < 100 nM | < 100 nM |
| C=CC(=O)Nc1ccccc1-c1c(C)nc2n(CC(=O)Nc3ccc(C(F)(F)F)cc3)c(CC)c(-c3ccc(C(=O)NCC)cc3)c(=O)n12 [Example 9, 4-(3-(2-Acrylamidophenyl)-7-ethyl-2-methyl-5-oxo-8-(2-oxo-2-((4-(trifluoromethyl)phenyl)amino)ethyl)-5,8-dihydroimidazo[1,2-a]pyrimidin-6-yl)-N-ethylbenzamide] | < 100 nM | < 100 nM |
| C=CC(=O)Nc1ccccc1-c1c(CC)n(CC(=O)Nc2ccc(F)cc2)c2nc(C)c(C)n2c1=O [Example 3, N-(2-(7-Ethyl-8-(2-((4-fluorophenyl)amino)-2-oxoethyl)-2,3-dimethyl-5-oxo-5,8-dihydroimidazo[1,2-a]pyrimidin-6-yl)phenyl)acrylamide] | < 100 nM | < 100 nM |
| C=CC(=O)Nc1ccccc1-c1c(CC)n(CC(=O)Nc2ccc(C(F)(F)F)cc2)c2nc(C)c(C)n2c1=O [Example 1, N-(2-(7-ethyl-2,3-dimethyl-5-oxo-8-(2-oxo-2-((4-(trifluoromethyl)phenyl)amino)ethyl)-5,8-dihydroimidazo[1,2-a]pyrimidin-6-yl)phenyl)acrylamide] | 100 to 500 nM | 100 to 500 nM |
| C=CC(=O)Nc1ccccc1-c1c(C)nc2n(CC(=O)Nc3ccc(F)cc3)c(CC)c(-c3ccccc3)c(=O)n12 [Example 6, N-(2-(7-Ethyl-8-(2-((4-fluorophenyl)amino)-2-oxoethyl)-2-methyl-5-oxo-6-phenyl-5,8-dihydroimidazo[1,2-a]pyrimidin-3-yl)phenyl)acrylamide] | 100 to 500 nM | 100 to 500 nM |
| C=CC(=O)Nc1ccccc1-c1c(C)nc2n(CC(=O)Nc3ccc(C(F)(F)F)cc3)c(CC)c(C)c(=O)n12 [Example 8, N-(2-(7-Ethyl-2,6-dimethyl-5-oxo-8-(2-oxo-2-((4-(trifluoromethyl)phenyl)amino)ethyl)-5,8-dihydroimidazo[1,2-a]pyrimidin-3-yl)phenyl)acrylamide] | < 100 nM | < 100 nM |
| C=CC(=O)Nc1ccccc1-c1c(CC)n(CC(=O)Nc2ccc(F)cc2Cl)c2nc(C)c(C)n2c1=O [Example 4, N-(2-(8-(2-((2-chloro-4-fluorophenyl)amino)-2-oxoethyl)-7-ethyl-2,3-dimethyl-5-oxo-5,8-dihydroimidazo[1,2-a]pyrimidin-6-yl)phenyl)acrylamide] | 100 to 500 nM | 100 to 500 nM |
| C=CC(=O)Nc1ccccc1-c1c(CC)n(CC(=O)Nc2ccc(C(F)(F)F)cc2)c2nc(-c3ccccc3)cn2c1=O [Example 2, N-(2-(7-Ethyl-5-oxo-8-(2-oxo-2-((4-(trifluoromethyl)phenyl)amino)ethyl)-2-phenyl-5,8-dihydroimidazo[1,2-a]pyrimidin-6-yl)phenyl)acrylamide] | 100 to 500 nM | 100 to 500 nM |
| C=CS(=O)(=O)Nc1ccccc1-c1c(C)nc2n(CC(=O)Nc3ccc(F)cc3)c(CC)c(-c3ccccc3)c(=O)n12 [Example 7, 2-(7-Ethyl-2-methyl-5-oxo-6-phenyl-3-(2-(vinylsulfonamido)phenyl)imidazo[1,2-a]pyrimidin-8(5H)-yl)-N-(4-fluorophenyl)acetamide] | < 100 nM | < 100 nM |
